From patent publication US20230028441A1, “NOVEL HETEROARYL-TRIAZOLE COMPOUNDS AS PESTICIDES” (Bayer Aktiengesellschaft, priority 2019, published 2023)

Assays:
Assay type in all cases: in vivo
[1] = test system: cattle tick larvae (Rhipicephalus microplus), strain Parkhurst, resistant against synthetic pyrethroids; assay: Rhipicephalus (Boophilus) microplus in-vitro contact test, larval cattle tick; settings: 5 μg/cm^2 (=500 g/ha), after 48 hours, read-out: efficacy (larvae dead or moribund)
Experimental: (§1) 9 mg compound is solved in 1 mL acetone and diluted with acetone to the desired concentration. 250 μL of the test solution is filled in 25 mL glass test tubes and homogeneously distributed on the inner walls by rotation and tilting on a shaking device (2 h at 30 rpm). With a compound concentration of 900 ppm, an inner surface of 44.7 cm^2 and a homogeneous distribution, a dose of 5 μg/cm^2 is achieved.
After the solvent has evaporated, each test tube is filled with 20-50 cattle tick larvae (Rhipicephalus microplus), closed with a perforated lid and incubated in a horizontal position at 85% relative humidity and 27° C. in an incubator. After 48 hours efficacy is determined. The larvae are patted on the ground of the tubes and negative geotactic behaviour is recorded.
An efficacy of 100% means all larvae are dead or moribund; 0% means no larvae are dead or moribund.

[2] = test system: larvae of the banded cucumber beetle (Diabrotica balteata); assay: Diabrotica balteata spray test; settings: 168 h, 100 g/ha (=32 μg/well), after 7 days, wheat seeds, read-out: efficacy (seedlings grown up)
Experimental: (§2) Solvent: 78.0 parts by weight of acetone • • 1.5 parts by weight of dimethylformamide
(§3) Emulsifier: alkylarylpolyglycol ether
(§4) To produce a suitable preparation of active compound, 1 part by weight of active compound is mixed with the stated amount of solvent, and the concentrate is diluted with water, containing an emulsifier concentration of 1000 ppm, to the desired concentration. Further test concentrations are prepared by dilution with emulsifier containing water.
Soaked wheat seeds (Triticum aestivum) are placed in a multiple well plate filled with agar and some water and are incubated for 1 day to germinate (5 seeds per well). The germinated wheat seeds are sprayed with a test solution containing the desired concentration of the active ingredient. Afterwards each unit is infected with 10-20 larvae of the banded cucumber beetle (Diabrotica balteata).
After 7 days efficacy in % is determined. 100% means all the seedlings have grown up like in the untreated, uninfected control; 0% means none of the seedlings have grown.

[3] = test system: green peach aphid (Myzus persicae); assay: Myzus persicae oral test; settings: 120 h
Experimental: Solvent: 100 parts by weight acetone
To produce a suitable preparation of active compound, 1 part by weight of active compound is mixed with the stated amount of solvent, and the concentrate is diluted with water to the desired concentration.
50 μL compound solution is filled in microtiter plates and 150 μL IPL41 insect medium (33%+15% sugar) is added to obtain a total volume of 200 μL per well. Afterwards the plates are sealed with parafilm through which a mixed population of the green peach aphid (Myzus persicae) can suck on the compound preparation.
After 5 days mortality in % is determined. 100% means all aphids have been killed and 0% means none of the aphids have been killed.

[4] = test system: fall armyworm larvae (Spodoptera frugiperda); assay: Spodoptera frugiperda spray test (maize leaf sections); settings: 168 h
Experimental: Solvent: 78.0 parts by weight acetone • 1.5 parts by weight dimethylformamide
as §3
To produce a suitable preparation of active compound, 1 part by weight of active compound is mixed with the stated amount of solvents and is diluted with water, containing an emulsifier concentration of 1000 ppm, to the desired concentration. Further test concentrations are prepared by dilution with emulsifier containing water.
Maize (Zea mays) leaf sections are sprayed with a preparation of the active ingredient of the desired concentration. Once dry, the leaf sections are infested with fall armyworm larvae (Spodoptera frugiperda).
After 7 days mortality in % is determined. 100% means all caterpillars have been killed and 0% means none of the caterpillars have been killed.

[5] = test system: adult engorged female ticks (Rhipicephalus microplus); assay: Rhipicephalus (Boophilus) microplus injection test; settings: 168 h, egg deposition after 7 days, read-out: efficacy (infertile eggs); for pest or weed control at 0.004 mg: 4 μg/animal; for pest or weed control at 0.02 mg: 20 μg/animal
Experimental: (§5) Solvent: dimethyl sulfoxide
To produce a suitable preparation of active compound, 10 mg of active compound are dissolved in 0.5 mL solvent, and the concentrate is diluted with solvent to the desired concentration.
Five adult engorged female ticks (Rhipicephalus microplus) are injected with 1 μL compound solution into the abdomen. The ticks are transferred into replica plates and incubated in a climate chamber.
After 7 days egg deposition of fertile eggs is monitored. Eggs where fertility is not visible are stored in a climate chamber till hatching after about 42 days. An efficacy of 100% means all eggs are infertile; 0% means all eggs are fertile.

[6] = test system: adult unfed cat fleas (Ctenocephalides felis); assay: Ctenocephalides felis oral test; settings: 48 h, 100 ppm in cattle blood, after 2 days
Experimental: as §5
To produce a suitable preparation of active compound, 10 mg of active compound are dissolved in 0.5 mL solvent, and the concentrate is diluted with cattle blood to the desired concentration.
Approximately 20 adult unfed cat fleas (Ctenocephalides felis) are placed in flea chambers. The blood chamber, sealed with parafilm on the bottom, are filled with cattle blood supplied with compound solution and placed on the gauze covered top of the flea chamber, so that the fleas are able to suck the blood. The blood chamber is heated to 37° C. whereas the flea chamber is kept at room temperature.
After 2 days mortality in % is determined. 100% means all the fleas have been killed; 0% means none of the fleas have been killed.

[7] = test system: larvae of the southern green stink bug (Nezara viridula); assay: Nezara viridula spray test; settings: in Hordeum vulgare, 96 h
Experimental: as §2, §3, §4
Barley plants (Hordeum vulgare) infested with larvae of the southern green stink bug (Nezara viridula) are sprayed with a test solution containing the desired concentration of the active ingredient.
After 4 days mortality in % is determined. 100% means all the stink bugs have been killed; 0% means none of the stink bugs have been killed.

[8] = test system: adult brown dog ticks (Rhipicephalus sanguineus); assay: Rhipicephalus sanguineus in-vitro contact test with adult brown dog ticks; settings: after 48 hours, read-out: efficacy (ticks dead or moribund); for pest or weed control at 5 µg/cm2, 500 g/ha: 5 μg/cm^2 (=500 g/ha)
Experimental: as §1
After the solvent has evaporated, each test tube is filled with 5-10 adult brown dog ticks (Rhipicephalus sanguineus), closed with a perforated lid and incubated in a lying position at room temperature and relative humidity. After 48 hours efficacy is determined. The ticks are patted on the ground of the tubes and are incubated on a heating plate at 45-50° C. for at most 5 minutes. Immotile or uncoordinated moving ticks, which are not able to escape the heat by climbing upwards, are marked as dead or moribund.
An efficacy of 100% means all ticks are dead or moribund; 0% means no ticks are dead or moribund.

| Structure (SMILES) | pest or weed control at 32 µg/disc, 100 g/ha [2] | mortality at 4 ppm [3] | mortality at 100 g/ha [4] | pest or weed control at 0.004 mg [5] | mortality at 100 ppm [6] | other results |
| --- | --- | --- | --- | --- | --- | --- |
| CC(NC(=O)c1cc(Cl)cc(Br)c1)c1nc(N)nn1-c1ncccn1 (centres unmarked) [I-108] | 100% | 100% | 100% | – | – | pest or weed control at 5 µg/cm2 [1]: 90% |
| CC(NC(=O)c1cc(Cl)cc(S(C)(=O)=O)c1)c1nc(NC(=O)C2(Cl)CC2)nn1-c1ncccn1 (centres unmarked) [I-020] | – | 90% | – | 100% | 100% | – |
| CC(NC(=O)c1cc(Cl)cc(S(C)(=O)=O)c1)c1nc(S(C)(=O)=O)nn1-c1ccc(Cl)cn1 (racemic) [I-060, 3-chloro-N-[1-[2-(5-chloro-2-pyridyl)-5-methylsulfonyl-1,2,4-triazol-3-yl]ethyl]-5-methylsulfonyl-benzamide] | – | 100% | – | 100% | – | pest or weed control at 0.02 mg [5]: 100%; mortality at 100 g/ha [7]: 100%; mortality at 500 g/ha [7]: 100% |
| CC(NC(=O)c1cc(Cl)cc(S(C)(=O)=O)c1)c1nc(N)nn1-c1ccc(Cl)cn1 (centres unmarked) [I-005] | – | 90% | – | 100% | 100% | pest or weed control at 0.02 mg [5]: 100% |
| CC(NC(=O)c1cc(Br)cc(C(F)(F)F)c1)c1nc(-c2cnccn2)nn1-c1ccc(Cl)cn1 (centres unmarked) [I-036] | – | – | 100% | – | 100% | pest or weed control at 5 µg/cm2 [1]: 100%; pest or weed control at 0.02 mg [5]: 100%; mortality at 500 g/ha [4]: 100% |
| CC(NC(=O)c1cc(Cl)cc(C(F)(F)F)c1)c1nc(NC(=O)[C@@H]2C[C@@H]2F)nn1-c1ncccn1 (some centres unmarked) [I-024] | 100% | 100% | 100% | – | – | – |
| CC(Cl)C(=O)Nc1nc(C(C)NC(=O)c2cc(Cl)cc(S(C)(=O)=O)c2)n(-c2ncccn2)n1 (centres unmarked) [I-019] | – | 90% | – | 100% | 100% | mortality at 100 g/ha [7]: 90% |
| CC(NC(=O)c1cc(Cl)cc(C(C)(C)C#N)c1)c1nc(N2CCOCC2)nn1-c1ccc(C#N)cn1 (centres unmarked) [I-159] | 100% | – | 100% | – | – | pest or weed control at 5 µg/cm2 [1]: 100%; pest or weed control at 1 µg/cm2, 100 g/ha ([8]; 1 μg/cm^2 (=100 g/ha)): 100%; mortality at 500 g/ha [7]: 90% |
| CC(NC(=O)c1cc(Cl)cc(C(F)(F)F)c1)c1nc(C#N)nn1-c1ncccn1 (single isomer, unassigned) [I-080, 3-chloro-N-[1-(5-cyano-2-pyrimidin-2-yl-1,2,4-triazol-3-yl)ethyl]-5-(trifluoromethyl)benzamide] | 100% | 90% | – | 100% | 100% | – |
| CC(NC(=O)c1cncc(C(F)(F)F)c1)c1nc(-c2ncccn2)nn1-c1ncccn1 (centres unmarked) [I-053] | – | 90% | – | – | 100% | – |
| CC(NC(=O)c1cc(Cl)cc(S(C)(=O)=O)c1)c1nc(NS(C)(=O)=O)nn1-c1ccc(Cl)cn1 (racemic) [I-025, 3-chloro-N-[1-[2-(5-chloro-2-pyridyl)-5-(methanesulfonamido)-1,2,4-triazol-3-yl]ethyl]-5-methylsulfonyl-benzamide] | – | 90% | – | – | – | – |
| CC(NC(=O)c1cc(Cl)cc(C(F)(F)F)c1)c1nc(NC(=O)C2(Cl)CC2)nn1-c1ccc(Cl)cn1 (centres unmarked) [I-014] | – | – | 100% | 100% | 100% | pest or weed control at 5 µg/cm2 [1]: 100%; pest or weed control at 0.02 mg [5]: 100%; mortality at 500 g/ha [4]: 100% |
| CNc1nc([C@H](C)NC(=O)c2cc(C(F)(F)F)cc(C(F)(F)F)c2)n(-c2ncc(C(=O)N3CCOCC3)s2)n1 [I-126, N-[(1S)-1-[5-(methylamino)-2-[5-(morpholine-4-carbonyl)thiazol-2-yl]-1,2,4-triazol-3-yl]ethyl]-3,5-bis(trifluoromethyl)benzamide] | 100% | – | 100% | – | – | pest or weed control at 5 µg/cm2, 500 g/ha [8]: 80%; mortality at 500 g/ha [7]: 100% |
| CC(NC(=O)c1cc(Br)cc(Br)c1)c1nc(N)nn1-c1ncccn1 (centres unmarked) [I-094] | – | 100% | 100% | – | – | – |
| CC(NC(=O)c1cc(Cl)cc(C(F)(F)F)c1)c1nc(NC(=O)C2CC2)nn1-c1ncccn1 (centres unmarked) [I-023] | 100% | 100% | 100% | – | – | mortality at 100 g/ha [7]: 90% |
| CC(NC(=O)c1cc(Cl)cc(C(F)(F)F)c1)c1nc(-c2ccc(Cl)nc2)nn1-c1ccc(Cl)cn1 (centres unmarked) [I-032] | – | – | – | – | – | pest or weed control at 5 µg/cm2, 500 g/ha [8]: 80% |
| CC(NC(=O)c1cc(Cl)cc(C(F)(F)F)c1)c1nc(C#N)nn1-c1ccc(C#N)cn1 (centres unmarked) [I-081] | 100% | – | – | 100% | 90% | pest or weed control at 5 µg/cm2 [1]: 100% |
| CC(NC(=O)c1cc(Cl)cc(S(C)(=O)=O)c1)c1nc(-c2ccco2)nn1-c1ncccn1 (centres unmarked) [I-057] | – | 100% | – | 80% | 100% | pest or weed control at 0.02 mg [5]: 100% |
